How the values were obtained:
[1] = system: C57BL/6 mice; experiment: Liver histology (H&E, PAS, Oil Red O) in fat-free high carbohydrate diet (HCD) mouse model of hepatic steatosis; type: in vivo; details: HCD+MAR mice, 100 mg/kg twice daily, 19 days
Method: Experiments were performed on 5-6 week-old C57BL/6 mice (Jackson Laboratories, Bar Harbor, Me.). The animals, in groups of five, were housed in a barrier room and were acclimated to their environment for at least 72 hours prior to the initiation of each experiment. Animal protocols complied with the NIH Animal Research Advisory Committee guidelines and were approved by the Children's Hospital Boston Animal Care and Use Committee. Control animals (n=5) received normal chow and water ad libitum. All animals in the experimental groups were fed a fat-free, high carbohydrate liquid diet (HCD) ad libitum placed in one bottle per cage as previously described (3, 62). No additional sources of nutrition or hydration were provided. The HCD liquid solution contained 20% dextrose, a commercial mixture of 2% essential and nonessential amino acids (TrophAmine, B. Braun Medical, Irvine, Calif.), 2 ml trace elements (Trace Elements Injection 4, USP-Pediatric, American Regent Shirley, N.Y.), and 5 ml multivitamins (M.V.I. PediatricTM, Mayne Pharma, Paramus, N.J.). Each liter of HCD contained 30 meq sodium, 20 meq potassium chloride, 15 meq calcium, 10 meq magnesium, and 10 mM phosphate. The bottles were replaced daily with fresh HCD solution. HCD animals (n=5) received HCD only and no additional treatment for 19 days. The HCD+MAR animals (n=15) additionally received 100 mg/kg of MarimastatTM in 0.45% methylcellulose (Sigma-Aldrich Corporation, St. Louis, Mo.) vehicle twice daily via orogastric gavage. The animals were individually weighed every third day and at sacrifice. We then performed a midline laparotomy to observe, excise, and weigh the liver. Approximately one half of the liver was fixed in 10% formalin at 4° C. overnight, washed with phosphate buffered saline, and then embedded in paraffin. After cutting 5 μm sections, slides were stained at the Department of Pathology, Children's Hospital Boston with H&E to examine cellular architecture and lipid accumulation, and with periodic acid-Schiff (PAS) to identify the presence of glycogen. Another portion of the liver was collected as frozen sections, placed in embedding medium (Optimal Cutting Temperature OCT, […], Torrance, Calif.), and immersed in cold 2-methylbutane (Aldrich, Milwaukee, Wis.) on dry ice. The samples were stored at […]. Sections were stained at the Department of Pathology, Children's Hospital Boston with Oil Red O to detect fat.

[2] = system: PPAR-α; experiment: Immunoprecipitation and SDS-PAGE of PPAR-α phosphorylation; type: in vivo, mouse; details: HCD+MAR group vs control and HCD-only
Method: Control animals (n=5) received normal chow and water ad libitum. All animals in the experimental groups were fed a fat-free, high carbohydrate liquid diet (HCD) ad libitum placed in one bottle per cage as previously described (3, 62). No additional sources of nutrition or hydration were provided. The HCD liquid solution contained 20% dextrose, a commercial mixture of 2% essential and nonessential amino acids (TrophAmine, B. Braun Medical, Irvine, Calif.), 2 ml trace elements (Trace Elements Injection 4, USP—Pediatric, American Regent Shirley, N.Y.), and 5 ml multivitamins (M.V.I. Pediatric™, Mayne Pharma, Paramus, N.J.). Each liter of HCD contained 30 meq sodium, 20 meq potassium chloride, 15 meq calcium, 10 meq magnesium, and 10 mM phosphate. The bottles were replaced daily with fresh HCD solution. HCD animals (n=5) received HCD only and no additional treatment for 19 days. The HCD+MAR animals (n=15) additionally received 100 mg/kg of Marimastat™ in 0.45% methylcellulose (Sigma-Aldrich Corporation, St. Louis, Mo.) vehicle twice daily via orogastric gavage. The animals were individually weighed every third day and at sacrifice. Immunoprecipitation was performed according to the Protein-G Immunoprecipitation Kit (Sigma-Aldrich Corporation, St. Louis, Mo.) protocol. […] The sample was then centrifuged and the supernatant was, analyzed by SDS-PAGE as detailed above.

In the case of `CNC(=O)[C@@H](NC(=O)[C@H](CC(C)C)[C@H](O)C(=O)NO)C(C)(C)C` [Marimastat], the “H&E inflammatory changes / necrosis” value [1] is reported as “occasional focal cellular infiltrates consistent with focal necrosis”, the “Oil Red O staining (fat in liver)” value [1] is reported as “minimal presence of fat” and the “PAS staining (glycogen storage)” value [1] is reported as “highly positive, granular, and widespread”. The “steatosis on H&E sections” value [1] was “No definitive steatosis” and the “phosphorylation of PPAR-α” value [2] was “marked increase”.

From US7897591B2, “Method of treating fatty liver disease” (priority 2005, dated 2011)
